Laboratory results: PubChem BioAssay (NCI)
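A five-concentration, 48-hour dose response in 96-well plates underlies each endpoint, interpolated linearly between surrounding concentrations. TGI: concentration producing complete growth inhibition.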

Tests used:
Assay in all cases: growth of human tumour cells (NCI), 48 h
CAKI-1 renal = system: CAKI-1 renal
HCC-2998 colon = system: HCC-2998 colon
SK-MEL-5 melanoma = system: SK-MEL-5 melanoma
KM20L2 colon = system: KM20L2 colon
HL-60(TB) leukemia = system: HL-60(TB) leukemia
NCI-H226 lung = system: NCI-H226 lung
RPMI-8226 leukemia = system: RPMI-8226 leukemia
RXF-631 renal = system: RXF-631 renal
NCI-H522 lung = system: NCI-H522 lung
K-562 leukemia = system: K-562 leukemia
IGROV1 ovarian = system: IGROV1 ovarian
MOLT-4 leukemia = system: MOLT-4 leukemia
HT29 colon = system: HT29 colon
COLO 205 colon = system: COLO 205 colon
NCI-H460 lung = system: NCI-H460 lung
KM12 colon = system: KM12 colon
XF 498 CNS = system: XF 498 CNS
SK-MEL-2 melanoma = system: SK-MEL-2 melanoma
U251 CNS = system: U251 CNS
SF-268 CNS = system: SF-268 CNS
TK-10 renal = system: TK-10 renal
CCRF-CEM leukemia = system: CCRF-CEM leukemia
OVCAR-3 ovarian = system: OVCAR-3 ovarian
A498 renal = system: A498 renal
HOP-62 NSCLC = system: HOP-62 NSCLC
UACC-257 melanoma = system: UACC-257 melanoma
M14 melanoma = system: M14 melanoma
SF-295 CNS = system: SF-295 CNS
RXF 393 renal = system: RXF 393 renal
SK-MEL-28 melanoma = system: SK-MEL-28 melanoma
EKVX NSCLC = system: EKVX NSCLC
HCT-116 colon = system: HCT-116 colon
OVCAR-8 ovarian = system: OVCAR-8 ovarian
SW-620 colon = system: SW-620 colon
ACHN renal = system: ACHN renal
OVCAR-4 ovarian = system: OVCAR-4 ovarian
SN12C renal = system: SN12C renal
MALME-3M melanoma = system: MALME-3M melanoma
786-0 renal = system: 786-0 renal
HCT-15 colon = system: HCT-15 colon
DMS 114 small cell lung = system: DMS 114 small cell lung
DMS 273 small cell lung = system: DMS 273 small cell lung
SNB-19 CNS = system: SNB-19 CNS
HOP-92 NSCLC = system: HOP-92 NSCLC
UO-31 renal = system: UO-31 renal
SNB-78 CNS = system: SNB-78 CNS
UACC-62 melanoma = system: UACC-62 melanoma
SK-OV-3 ovarian = system: SK-OV-3 ovarian
OVCAR-5 ovarian = system: OVCAR-5 ovarian
M19-MEL melanoma = system: M19-MEL melanoma
A549 NSCLC = system: A549 NSCLC
NCI-H23 lung = system: NCI-H23 lung
SNB-75 CNS = system: SNB-75 CNS
SF-539 CNS = system: SF-539 CNS
DLD-1 colon = system: DLD-1 colon
LOX IMVI melanoma = system: LOX IMVI melanoma
LXFL 529 NSCLC = system: LXFL 529 NSCLC

SMILES: c1ccc(CNc2ccc3[nH]c4cnccc4c3c2)cc1
- TGI (CAKI-1 renal): 30.4 µM
- TGI (HCC-2998 colon): 33.2 µM
- TGI (SK-MEL-5 melanoma): 30.2 µM
- TGI (KM20L2 colon): 30.9 µM
- TGI (HL-60(TB) leukemia): 27.4 µM
- TGI (NCI-H226 lung): 38.4 µM
- TGI (RPMI-8226 leukemia): 54.7 µM
- TGI (RXF-631 renal): 49.2 µM
- TGI (NCI-H522 lung): 29.1 µM
- TGI (K-562 leukemia): 36.5 µM
- TGI (IGROV1 ovarian): 34.4 µM
- TGI (MOLT-4 leukemia): 36.9 µM
- TGI (HT29 colon): 31.7 µM
- TGI (COLO 205 colon): 31 µM
- TGI (NCI-H460 lung): 34.1 µM
- TGI (KM12 colon): 31.1 µM
- TGI (XF 498 CNS): 35.8 µM
- TGI (SK-MEL-2 melanoma): 33.1 µM
- TGI (U251 CNS): 32 µM
- TGI (SF-268 CNS): 35 µM
- TGI (TK-10 renal): 36.2 µM
- TGI (CCRF-CEM leukemia): 42.5 µM
- TGI (OVCAR-3 ovarian): 27 µM
- TGI (A498 renal): 28.6 µM
- TGI (HOP-62 NSCLC): 31.7 µM
- TGI (UACC-257 melanoma): 31.4 µM
- TGI (M14 melanoma): 32.9 µM
- TGI (SF-295 CNS): 32.6 µM
- TGI (RXF 393 renal): 26.8 µM
- TGI (SK-MEL-28 melanoma): 27.1 µM
- TGI (EKVX NSCLC): 43.4 µM
- TGI (HCT-116 colon): 33.2 µM
- TGI (OVCAR-8 ovarian): 36.5 µM
- TGI (SW-620 colon): 42.2 µM
- TGI (ACHN renal): 29 µM
- TGI (OVCAR-4 ovarian): 29.1 µM
- TGI (SN12C renal): 33.3 µM
- TGI (MALME-3M melanoma): 35.8 µM
- TGI (786-0 renal): 29.3 µM
- TGI (HCT-15 colon): 39.1 µM
- TGI (DMS 114 small cell lung): 32.1 µM
- TGI (DMS 273 small cell lung): 37.4 µM
- TGI (SNB-19 CNS): 29.6 µM
- TGI (HOP-92 NSCLC): 30.8 µM
- TGI (UO-31 renal): 29.4 µM
- TGI (SNB-78 CNS): 38.5 µM
- TGI (UACC-62 melanoma): 34 µM
- TGI (SK-OV-3 ovarian): 41.5 µM
- TGI (OVCAR-5 ovarian): 30.9 µM
- TGI (M19-MEL melanoma): 36.3 µM
- TGI (A549 NSCLC): 34.7 µM
- TGI (NCI-H23 lung): 32.3 µM
- TGI (SNB-75 CNS): 19.8 µM
- TGI (SF-539 CNS): 33.3 µM
- TGI (DLD-1 colon): 31.9 µM
- TGI (LOX IMVI melanoma): 33.5 µM
- TGI (LXFL 529 NSCLC): 30.5 µM

SMILES: OC1CC1Sc1ccccc1 (stereo not drawn)
- TGI (CAKI-1 renal): > 100 µM
- TGI (HCC-2998 colon): > 100 µM
- TGI (SK-MEL-5 melanoma): > 100 µM
- TGI (HL-60(TB) leukemia): 39.6 µM
- TGI (RPMI-8226 leukemia): 83.4 µM
- TGI (RXF-631 renal): > 100 µM
- TGI (NCI-H522 lung): 39.8 µM
- TGI (K-562 leukemia): > 100 µM
- TGI (IGROV1 ovarian): 60.1 µM
- TGI (MOLT-4 leukemia): 91.7 µM
- TGI (HT29 colon): > 100 µM
- TGI (COLO 205 colon): > 100 µM
- TGI (NCI-H460 lung): > 100 µM
- TGI (KM12 colon): > 100 µM
- TGI (XF 498 CNS): > 100 µM
- TGI (SK-MEL-2 melanoma): > 100 µM
- TGI (U251 CNS): > 100 µM
- TGI (SF-268 CNS): 78.1 µM
- TGI (TK-10 renal): > 100 µM
- TGI (CCRF-CEM leukemia): > 100 µM
- TGI (OVCAR-3 ovarian): 78.7 µM
- TGI (A498 renal): > 100 µM
- TGI (HOP-62 NSCLC): > 100 µM
- TGI (UACC-257 melanoma): > 100 µM
- TGI (M14 melanoma): > 100 µM
- TGI (SF-295 CNS): 69.4 µM
- TGI (RXF 393 renal): > 100 µM
- TGI (SK-MEL-28 melanoma): 57.3 µM
- TGI (EKVX NSCLC): > 100 µM
- TGI (HCT-116 colon): 62.9 µM
- TGI (OVCAR-8 ovarian): 92.7 µM
- TGI (SW-620 colon): 78.4 µM
- TGI (ACHN renal): > 100 µM
- TGI (OVCAR-4 ovarian): > 100 µM
- TGI (SN12C renal): 61.7 µM
- TGI (MALME-3M melanoma): > 100 µM
- TGI (786-0 renal): 42.8 µM
- TGI (HCT-15 colon): > 100 µM
- TGI (DMS 114 small cell lung): 74.4 µM
- TGI (DMS 273 small cell lung): > 100 µM
- TGI (SNB-19 CNS): > 100 µM
- TGI (HOP-92 NSCLC): > 100 µM
- TGI (UO-31 renal): 33.6 µM
- TGI (SNB-78 CNS): > 100 µM
- TGI (UACC-62 melanoma): > 100 µM
- TGI (SK-OV-3 ovarian): > 100 µM
- TGI (OVCAR-5 ovarian): > 100 µM
- TGI (M19-MEL melanoma): > 100 µM
- TGI (A549 NSCLC): > 100 µM
- TGI (NCI-H23 lung): > 100 µM
- TGI (SNB-75 CNS): > 100 µM
- TGI (SF-539 CNS): 46.4 µM
- TGI (DLD-1 colon): > 100 µM
- TGI (LOX IMVI melanoma): 71.1 µM
- TGI (LXFL 529 NSCLC): 89.2 µM

SMILES: CCOC(=O)C(C(C)=O)C1CC=CC1 (stereo not drawn)
- TGI (CAKI-1 renal): > 100 µM
- TGI (HCC-2998 colon): > 100 µM
- TGI (SK-MEL-5 melanoma): > 100 µM
- TGI (KM20L2 colon): > 100 µM
- TGI (HL-60(TB) leukemia): > 100 µM
- TGI (NCI-H226 lung): > 100 µM
- TGI (RPMI-8226 leukemia): > 100 µM
- TGI (RXF-631 renal): > 100 µM
- TGI (K-562 leukemia): > 100 µM
- TGI (IGROV1 ovarian): > 100 µM
- TGI (MOLT-4 leukemia): > 100 µM
- TGI (HT29 colon): > 100 µM
- TGI (COLO 205 colon): > 100 µM
- TGI (NCI-H460 lung): > 100 µM
- TGI (KM12 colon): > 100 µM
- TGI (XF 498 CNS): > 100 µM
- TGI (SK-MEL-2 melanoma): > 100 µM
- TGI (U251 CNS): > 100 µM
- TGI (TK-10 renal): > 100 µM
- TGI (CCRF-CEM leukemia): > 100 µM
- TGI (OVCAR-3 ovarian): > 100 µM
- TGI (HOP-62 NSCLC): > 100 µM
- TGI (UACC-257 melanoma): > 100 µM
- TGI (M14 melanoma): > 100 µM
- TGI (SF-295 CNS): > 100 µM
- TGI (RXF 393 renal): > 100 µM
- TGI (SK-MEL-28 melanoma): > 100 µM
- TGI (EKVX NSCLC): > 100 µM
- TGI (HCT-116 colon): > 100 µM
- TGI (OVCAR-8 ovarian): > 100 µM
- TGI (SW-620 colon): > 100 µM
- TGI (ACHN renal): > 100 µM
- TGI (OVCAR-4 ovarian): > 100 µM
- TGI (SN12C renal): > 100 µM
- TGI (MALME-3M melanoma): > 100 µM
- TGI (786-0 renal): > 100 µM
- TGI (HCT-15 colon): > 100 µM
- TGI (DMS 114 small cell lung): > 100 µM
- TGI (DMS 273 small cell lung): > 100 µM
- TGI (SNB-19 CNS): > 100 µM
- TGI (HOP-92 NSCLC): > 100 µM
- TGI (UO-31 renal): > 100 µM
- TGI (SNB-78 CNS): > 100 µM
- TGI (UACC-62 melanoma): > 100 µM
- TGI (SK-OV-3 ovarian): > 100 µM
- TGI (OVCAR-5 ovarian): > 100 µM
- TGI (A549 NSCLC): > 100 µM
- TGI (SNB-75 CNS): > 100 µM
- TGI (DLD-1 colon): > 100 µM
- TGI (LOX IMVI melanoma): > 100 µM
- TGI (LXFL 529 NSCLC): > 100 µM
